Assay results as given in patent US20240067693A1, “POLYPEPTIDES AND USES THEREOF” (MEDIMMUNE LIMITED, priority 2020, published 2024).
Numbered stars: 1 amine (or outer) side, 2 acyl side, 3 side chain; on linkers, the order of the positions; unused ones are H or OH. Bridge positions count the residues as written; N and C are the ends. Square brackets hold non-standard residues; d marks the D form. Side chains are listed from the residue outwards. Peptide text beside a SMILES is read from it. * marks the point of attachment. C20 diacid = O=C(O)CCCCCCCCCCCCCCCCCCC(=O)*; C18 diacid = O=C(O)CCCCCCCCCCCCCCCCC(=O)*; γGlu = O=C(O)[C@H](CCC(=O)[*:2])N[*:1]; Hyp = O=C(O)[C@@H]1C[C@@H](O)CN1; Dab = NCC[C@H](N)C(=O)O; Aib = CC(C)(N)C(=O)O

Tests used:
[1] = biological target: T1, human amylin receptor (calcitonin receptor co-expressed with receptor activity modifying protein, RAMP3) (hAMYR3) (Homo sapiens, UniProt O60896+P30988); test: cAMP production in 1321N1 cells with stable recombinant expression of human amylin receptor (hAMYR3); assay type: cell-based; settings: for Ratio (selectivity hAMYR vs hCTR, ratio of EC50 values at the two receptors): EC50 hCTR / EC50 hAMYR3; for EC50: cAMP, 1321N1 cells, assay buffer with 0.1% BSA, read-out: EC50 (pM) hAMYR3
T1 construct: expressed in transfected cells
T1 sequence (P30988 25-474): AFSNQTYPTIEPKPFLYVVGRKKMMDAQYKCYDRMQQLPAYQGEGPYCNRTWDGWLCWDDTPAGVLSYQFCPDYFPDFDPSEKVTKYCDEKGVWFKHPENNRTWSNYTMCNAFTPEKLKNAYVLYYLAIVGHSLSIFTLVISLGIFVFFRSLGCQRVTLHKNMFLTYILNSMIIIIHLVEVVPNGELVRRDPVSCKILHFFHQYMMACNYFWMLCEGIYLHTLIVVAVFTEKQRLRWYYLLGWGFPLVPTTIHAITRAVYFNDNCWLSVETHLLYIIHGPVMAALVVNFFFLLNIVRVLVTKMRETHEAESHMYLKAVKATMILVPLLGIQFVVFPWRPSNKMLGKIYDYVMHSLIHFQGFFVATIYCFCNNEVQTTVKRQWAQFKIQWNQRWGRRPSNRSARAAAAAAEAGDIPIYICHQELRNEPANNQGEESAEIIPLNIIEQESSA
T1 sequence (O60896 24-148 partner): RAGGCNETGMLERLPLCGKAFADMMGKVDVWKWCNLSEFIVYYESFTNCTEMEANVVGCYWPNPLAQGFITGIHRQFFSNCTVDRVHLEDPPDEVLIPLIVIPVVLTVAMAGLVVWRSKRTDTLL
In short: (§1)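 Thawed cells in HBSS/0.1% BSA/25 mM HEPES pH 7.4 with 0.5 mM IBMX were incubated with peptides 30 min at room temperature; cAMP read by HTRF. EC50 from 4-parameter fit of % activation relative to maximal amylin or calcitonin effect.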

[2] = biological target: T2, human calcitonin receptor (hCTR) (Homo sapiens, UniProt P30988); test: cAMP production in 1321N1 cells with stable recombinant expression of human calcitonin receptor (hCTR); assay type: cell-based; settings: cAMP, 1321N1 cells, assay buffer with 0.1% BSA; read-out: EC50 (pM) hCTR
T2 construct: expressed in transfected cells
T2 sequence (P30988 25-474): T1 sequence (P30988 25-474)
In short: as §1

SMILES: CC[C@H](C)[C@H](NC(=O)[C@H](C)NC(=O)[C@@H]1CCCN1C(=O)[C@H](Cc1ccccc1)NC(=O)[C@H](CC(N)=O)NC(=O)[C@@H]1CCCN1C(=O)[C@@H]1CCCN1C(=O)[C@H](CO)NC(=O)[C@H](Cc1c[nH]cn1)NC(=O)[C@@H](NC(=O)[C@H](CC(C)C)NC(=O)[C@H](Cc1ccccc1)NC(=O)[C@H](CC(N)=O)NC(=O)[C@H](C)NC(=O)[C@H](CC(C)C)NC(=O)[C@H](CCCNC(=N)N)NC(=O)[C@H](CCC(N)=O)NC(=O)[C@@H](NC(=O)[C@H](C)NC(=O)[C@@H]1CSSC[C@H](NC(=O)[C@@H](N)CCCCNC(=O)CC[C@H](NC(=O)CC[C@H](NC(=O)CCCCCCCCCCCCCCCCCCC(=O)O)C(=O)O)C(=O)O)C(=O)N[C@@H](CC(N)=O)C(=O)N[C@@H]([C@@H](C)O)C(=O)N[C@@H](C)C(=O)N[C@@H]([C@@H](C)O)C(=O)N1)[C@@H](C)O)C(C)C)C(=O)N[C@@H](CC(C)C)C(=O)N[C@@H](CO)C(=O)N1CCC[C@H]1C(=O)N[C@H](C(=O)N[C@@H](CC(N)=O)C(=O)N[C@H](C(=O)NCC(=O)N[C@@H](CO)C(=O)N[C@@H](CC(N)=O)C(=O)N[C@H](C(=O)N[C@@H](Cc1ccc(O)cc1)C(N)=O)[C@@H](C)O)C(C)C)[C@@H](C)O [Peptide 119] (H-K([γGlu-γGlu-C20 diacid])CNTATCATQRLANFLVHSPPNFPAILSPTNVGSNTY-NH2; disulfide 2-7; N-terminus assumed)
- Ratio (selectivity hAMYR vs hCTR, ratio of EC50 values at the two receptors) [1]: 24
- EC50 [1]: 1460 pM
- EC50 [2]: 34700 pM

SMILES: CC[C@H](C)[C@H](NC(=O)[C@H](C)NC(=O)[C@@H]1C[C@@H](O)CN1C(=O)[C@H](Cc1ccccc1)NC(=O)[C@H](CC(N)=O)NC(=O)C(C)(C)NC(=O)[C@H](CO)NC(=O)[C@H](CO)NC(=O)[C@H](Cc1c[nH]cn1)NC(=O)[C@@H](NC(=O)[C@H](CC(C)C)NC(=O)[C@H](Cc1ccccc1)NC(=O)[C@H](CC(N)=O)NC(=O)[C@H](C)NC(=O)[C@H](CC(C)C)NC(=O)[C@H](CCCNC(=N)N)NC(=O)[C@H](CCC(N)=O)NC(=O)[C@@H](NC(=O)[C@H](C)NC(=O)[C@@H]1CSSC[C@H](NC(=O)[C@@H](N)CCCCNC(=O)CC[C@H](NC(=O)CC[C@H](NC(=O)CCCCCCCCCCCCCCCCCCC(=O)O)C(=O)O)C(=O)O)C(=O)N[C@@H](CC(N)=O)C(=O)N[C@@H]([C@@H](C)O)C(=O)N[C@@H](C)C(=O)N[C@@H]([C@@H](C)O)C(=O)N1)[C@@H](C)O)C(C)C)C(=O)N[C@@H](CC(C)C)C(=O)N[C@@H](CO)C(=O)N1CCC[C@H]1C(=O)N[C@H](C(=O)N[C@@H](CC(N)=O)C(=O)N[C@H](C(=O)NCC(=O)N[C@@H](CO)C(=O)N[C@@H](CC(N)=O)C(=O)N[C@H](C(=O)N[C@@H](Cc1ccc(O)cc1)C(N)=O)[C@@H](C)O)C(C)C)[C@@H](C)O [Peptide 121, K(γE-γE-C20diacid)[CNTATC]ATQRLANFLVHSS(Aib)NF(Hyp)AILSPTNVGSNTY-amide] (H-K([γGlu-γGlu-C20 diacid])CNTATCATQRLANFLVHSS[Aib]NF[Hyp]AILSPTNVGSNTY-NH2; disulfide 2-7; N-terminus assumed)
- Ratio (selectivity hAMYR vs hCTR, ratio of EC50 values at the two receptors) [1]: 5
- EC50 [1]: 1330 pM
- EC50 [2]: 6070 pM

SMILES: CC[C@H](C)[C@H](NC(=O)[C@H](C)NC(=O)[C@@H]1CCCN1C(=O)[C@H](Cc1ccccc1)NC(=O)[C@H](CC(N)=O)NC(=O)C(C)(C)NC(=O)[C@H](CO)NC(=O)[C@H](CO)NC(=O)[C@H](Cc1c[nH]cn1)NC(=O)[C@@H](NC(=O)[C@H](CC(C)C)NC(=O)[C@H](Cc1ccccc1)NC(=O)[C@H](CC(N)=O)NC(=O)[C@H](C)NC(=O)[C@H](CC(C)C)NC(=O)[C@H](CCCNC(=N)N)NC(=O)[C@H](CCC(N)=O)NC(=O)[C@@H](NC(=O)[C@H](C)NC(=O)[C@@H]1CSSC[C@H](NC(=O)[C@@H](N)CCCCNC(=O)CC[C@H](NC(=O)CC[C@H](NC(=O)CCCCCCCCCCCCCCCCC(=O)O)C(=O)O)C(=O)O)C(=O)N[C@@H](CC(N)=O)C(=O)N[C@@H]([C@@H](C)O)C(=O)N[C@@H](C)C(=O)N[C@@H]([C@@H](C)O)C(=O)N1)[C@@H](C)O)C(C)C)C(=O)N[C@@H](CC(C)C)C(=O)N[C@@H](CO)C(=O)N1CCC[C@H]1C(=O)N[C@H](C(=O)N[C@@H](CCN)C(=O)N[C@H](C(=O)NCC(=O)N[C@@H](CO)C(=O)N[C@@H](CC(N)=O)C(=O)N[C@H](C(=O)N[C@@H](Cc1ccc(O)cc1)C(N)=O)[C@@H](C)O)C(C)C)[C@@H](C)O [Peptide 122, K(γE-γE-C18diacid)[CNTATC]ATQRLANFLVHSS(Aib)NFPAILSPT(Dab)VGSNTY-amide] (H-K([γGlu-γGlu-C18 diacid])CNTATCATQRLANFLVHSS[Aib]NFPAILSPT[Dab]VGSNTY-NH2; disulfide 2-7)
- Ratio (selectivity hAMYR vs hCTR, ratio of EC50 values at the two receptors) [1]: 9
- EC50 [1]: 655 pM
- EC50 [2]: 6180 pM

SMILES: CC[C@H](C)[C@H](NC(=O)[C@H](C)NC(=O)[C@@H]1CCCN1C(=O)[C@H](Cc1ccccc1)NC(=O)[C@H](CC(N)=O)NC(=O)C(C)(C)NC(=O)[C@H](CO)NC(=O)[C@H](CO)NC(=O)[C@H](Cc1c[nH]cn1)NC(=O)[C@@H](NC(=O)[C@H](CC(C)C)NC(=O)[C@H](Cc1ccccc1)NC(=O)[C@H](CC(N)=O)NC(=O)[C@H](C)NC(=O)[C@H](CC(C)C)NC(=O)[C@H](CCCNC(=N)N)NC(=O)[C@H](CCC(N)=O)NC(=O)[C@@H](NC(=O)[C@H](C)NC(=O)[C@@H]1CSSC[C@H](NC(=O)[C@@H](N)CCCCNC(=O)CC[C@H](NC(=O)CC[C@H](NC(=O)CCCCCCCCCCCCCCCCCCC(=O)O)C(=O)O)C(=O)O)C(=O)N[C@@H](CC(N)=O)C(=O)N[C@@H]([C@@H](C)O)C(=O)N[C@@H](C)C(=O)N[C@@H]([C@@H](C)O)C(=O)N1)[C@@H](C)O)C(C)C)C(=O)N[C@@H](CC(C)C)C(=O)N[C@@H](CO)C(=O)N1CCC[C@H]1C(=O)N[C@H](C(=O)N[C@@H](CCN)C(=O)N[C@H](C(=O)NCC(=O)N[C@@H](CO)C(=O)N[C@@H](CC(N)=O)C(=O)N[C@H](C(=O)N[C@@H](Cc1ccc(O)cc1)C(N)=O)[C@@H](C)O)C(C)C)[C@@H](C)O [Peptide 123, K(γE-γE-C20diacid)[CNTATC]ATQRLANFLVHSS(Aib)NFPAILSPT(Dab)VGSNTY-amide] (H-K([γGlu-γGlu-C20 diacid])CNTATCATQRLANFLVHSS[Aib]NFPAILSPT[Dab]VGSNTY-NH2; disulfide 2-7; N-terminus assumed)
- Ratio (selectivity hAMYR vs hCTR, ratio of EC50 values at the two receptors) [1]: 5
- EC50 [1]: 873 pM
- EC50 [2]: 4790 pM

SMILES: CC[C@H](C)[C@H](NC(=O)[C@H](C)NC(=O)[C@@H]1CCCN1C(=O)[C@H](Cc1ccccc1)NC(=O)[C@H](CC(N)=O)NC(=O)C(C)(C)NC(=O)[C@H](CO)NC(=O)[C@H](CO)NC(=O)[C@H](Cc1c[nH]cn1)NC(=O)[C@@H](NC(=O)[C@H](CC(C)C)NC(=O)[C@H](Cc1ccccc1)NC(=O)[C@H](CC(N)=O)NC(=O)[C@H](C)NC(=O)[C@H](CC(C)C)NC(=O)[C@H](CCCNC(=N)N)NC(=O)[C@H](CCC(N)=O)NC(=O)[C@@H](NC(=O)[C@H](C)NC(=O)[C@@H]1CSSC[C@H](NC(=O)[C@@H](N)CCCCNC(=O)CC[C@H](NC(=O)CC[C@H](NC(=O)CCCCCCCCCCCCCCCCC(=O)O)C(=O)O)C(=O)O)C(=O)N[C@@H](CC(N)=O)C(=O)N[C@@H]([C@@H](C)O)C(=O)N[C@@H](C)C(=O)N[C@@H]([C@@H](C)O)C(=O)N1)[C@@H](C)O)C(C)C)C(=O)N[C@@H](CC(C)C)C(=O)N[C@@H](CO)C(=O)N1CCC[C@H]1C(=O)N[C@H](C(=O)N[C@@H](CC(N)=O)C(=O)N[C@H](C(=O)NCC(=O)N[C@@H](CO)C(=O)N[C@@H](CCN)C(=O)N[C@H](C(=O)N[C@@H](Cc1ccc(O)cc1)C(N)=O)[C@@H](C)O)C(C)C)[C@@H](C)O [Peptide 124, K(γE-γE-C18diacid)[CNTATC]ATQRLANFLVHSS(Aib)NFPAILSPTNVGS(Dab)TY-amide] (H-K([γGlu-γGlu-C18 diacid])CNTATCATQRLANFLVHSS[Aib]NFPAILSPTNVGS[Dab]TY-NH2; disulfide 2-7; N-terminus assumed)
- Ratio (selectivity hAMYR vs hCTR, ratio of EC50 values at the two receptors) [1]: 6
- EC50 [1]: 1130 pM
- EC50 [2]: 6630 pM
